Values belong to the compound of their own block, whether it stands above or below them.
System: Escherichia coli ATCC 25922
Test: Minimum inhibitory concentration (MIC), CLSI broth micro-dilution, E. coli
Assay type: cell-based
Conditions: Escherichia coli
Protocol: In vitro antimicrobial activity of each compound was determined by measuring minimal inhibitor concentrations (MICs) using the broth micro-dilution technique as approved by the Clinical and Laboratory Standards Institute (CLSI) (Methods for Dilution Antimicrobial Susceptibility Tests for Bacteria that Grow Aerobically; Approved Standard-Eighth Edition. CLSI document M07-A8. Wayne, PA: Clinical and Laboratroy Standards; 2009). Antibacterial activity was measure against two strains of bacteria: a Methicillin Resistant Staphylococcus aureus strain USA 200, (S. aureus) and Escherichia coli ATCC 25922 (E. coli), a clinically relevant Gram-negative strain. Cells were inoculated onto plates of Trypyticase Soy Agar or Luria Agar respectively and grown at 35° C. for 20 hours. Inocula suspensions were prepared by scraping cells into 1 mL of testing media (cation adjusted Mueller Hinton Broth supplemented with 0.002% v/v Tween-80) and diluting to a final OD600nm of 0.01.
Test compounds were prepared in DMSO at a concentration of 10 mg/mL. In protocol 1, the compound stocks were diluted into testing media at a concentration of 64 µg/ml and serial 2-fold dilutions were made in the same media, in 96-well U bottom microtiter dishes, for a total of 10 compound concentrations. In protocol 2, the compound stocks were diluted into testing media at a concentration of 4 µg/mL and serial 2-fold dilutions were made in the same media, in 96-well U bottom microtiter dishes, for a total of 10 compound concentrations. In protocol 3, compound stocks were diluted into testing media at a concentration of 0.5 μg/mL, with serial 2-fold dilutions conducted as described above. In protocol 4, compound stocks were diluted into testing media at a concentration of […], with serial 2-fold dilutions conducted as described above. Inocula suspensions were added to the 2-fold serial dilutions of test compounds to a final density of GD OD600nm of 0.0005 and incubated at 35° C. for 22 hours.

[1] = ATCC25922, 22 h, Table 6, cation adjusted Mueller Hinton Broth + 0.002% Tween-80, 35° C.
[2] = ATCC25922, Table 6, cation adjusted Mueller Hinton Broth + 0.002% Tween-80, 35° C., 22 hours
[3] = ATCC25922, Table 7, cation adjusted Mueller Hinton Broth + 0.002% Tween-80, 35° C., 22 hours
[4] = ATCC25922, 22 h, Table 7, cation adjusted Mueller Hinton Broth + 0.002% Tween-80, 35° C.

MIC [1]: 0.13 µM
SMILES: Cc1cc(-c2ccc(C(C)(C)C)cc2)cc(N)c1C(=O)N[C@@H](CCN)C(=O)N(C)[C@@H]1C(=O)N[C@@H](C)C(=O)N[C@H](C(=O)NCC#N)Cc2ccc(OCCN)c(c2)-c2cc1ccc2OCCN (racemic) [Compound 373, rac-(8S,11S,14S)-3,18-bis(2-aminoethoxy)-N-(cyanomethyl)-11-methyl-14-[methyl-[rac-(2S)-4-amino-2-[[2-amino-4-(4-tert-butylphenyl)-6-methyl-benzoyl]amino]butanoyl]amino]-10,13-dioxo-9,12-diazatricyclo[13.3.1.12,6]icosa-1(18),2(20),3,5,15(19),16-hexaene-8-carboxamide]

MIC (ATCC25922, 22 h, Table 8, cation adjusted Mueller Hinton Broth + 0.002% Tween-80, 35° C.): 0.25 µM
SMILES: Cc1nc(-c2ccc(C(C)(C)C)cc2)ncc1C(=O)N[C@@H](CCN)C(=O)N(C)[C@@H]1C(=O)N[C@@H](C)C(=O)N[C@H](C(=O)O)Cc2ccc(OCCN)c(c2)-c2cc1ccc2OCCN (racemic) [Compound 640, rac-(8S,11S,14S)-3,18-bis(2-aminoethoxy)-11-methyl-14-[methyl-[rac-(2S)-4-amino-2-[[2-(4-tert-butylphenyl)-4-methyl-pyrimidine-5-carbonyl]amino]butanoyl]amino]-10,13-dioxo-9,12-diazatricyclo [13.3.1.12,6]icosa-1(18),2(20),3,5,15(19), 16-hexaene-8-carboxylic acid]

MIC [4]: 0.5 µM
SMILES: Cc1nc(-c2ccc(C(C)(C)C)cc2)nc(C)c1C(=O)N[C@@H](CCN)C(=O)N(C)[C@@H]1C(=O)N[C@@H](C)C(=O)N[C@H](C(=O)NCC#N)Cc2ccc(OC(C)CN)c(c2)-c2cc1ccc2O (mixture of isomers) [Compound 606, rac-(8S,11S,14S)-3-(2-amino-1-methyl-ethoxy)-N-(cyanomethyl)-18-hydroxy-11-methyl-14-[methyl-[rac-(2S)-4-amino-2-[[2-(4-tert-butylphenyl)-4,6-dimethyl-pyrimidine-5-carbonyl]amino]butanoyl]amino]-10,13-dioxo-9,12-diazatricyclo[13.3.1.12,6]icosa-1(18),2(20),3,5,15(19),16-hexaene-8-carboxamide]

MIC [4]: 0.25 µM
SMILES: COc1c(OC[C@H](O)CN)cc2cc1-c1cc(cc(OC[C@H](O)CN)c1OC)[C@H](N(C)C(=O)[C@H](CCN)NC(=O)c1c(C)nc(-c3ccc(C(C)(C)C)cc3)nc1C)C(=O)N[C@@H](C)C(=O)N[C@H](C(=O)NCC#N)C2 (racemic) [Compound 591, rac-(8S,11S,14S)-N-(cyanomethyl)-3,18-dimethoxy-11-methyl-14-[methyl-[rac-(2S)-4-amino-2-[[2-(4-tert-butylphenyl)-4,6-dimethyl-pyrimidine-5-carbonyl]amino]butanoyl]amino]-10,13-dioxo-4,17-bis[rac-(2R)-3-amino-2-hydroxy-propoxy]-9,12-diazatricyclo[13.3.1.12,6]icosa-1(18),2(20),3,5,15(19),16-hexaene-8-carboxamide]

MIC [4]: 0.26 µM
SMILES: Cc1nc(-c2ccc(C(C)(C)C)cc2)nc(C)c1C(=O)N[C@@H](CCN)C(=O)N(C)[C@@H]1C(=O)N[C@@H](C)C(=O)N[C@H](C(=O)NCC#N)Cc2ccc(OCCCN)c(c2)-c2cc1ccc2O (racemic) [Compound 597, rac-(8S,11S,14S)-3-(3-aminopropoxy)-N-(cyanomethyl)-18-hydroxy-11-methyl-14-[methyl-[rac-(2S)-4-amino-2-[[2-(4-tert-butylphenyl)-4,6-dimethyl-pyrimidine-5-carbonyl]amino]butanoyl]amino]-10,13-dioxo-9,12-diazatricyclo[13.3.1.12,6]icosa-1(18),2(20),3,5,15(19),16-hexaene-8-carboxamide]

More lines, now with the values behind:

SMILES: CCCCCCCCc1ccc(C(=O)N[C@@H](CCNS(N)(=O)=O)C(=O)N(C)[C@@H]2C(=O)N[C@@H](C)C(=O)N[C@H](C(=O)NCC#N)Cc3ccc(OCCN)c(c3)-c3cc2ccc3OCCN)c(C)c1 (racemic) [Compound 449, rac-(8S,11S,14S)-3,18-bis(2-aminoethoxy)-N-(cyanomethyl)-11-methyl-14-[methyl-[rac-(2S)-2-[(2-methyl-4-octyl-benzoyl)amino]-4-(sulfamoylamino)butanoyl]amino]-10,13-dioxo-9,12-diazatricyclo[13.3.1.12,6]icosa-1(18),2(20),3,5,15(19),16-hexaene-8-carboxamide]
MIC [2]: 0.5 µM

SMILES: CC(=N)NCCOc1ccc2cc1-c1cc(ccc1O)C[C@@H](C(=O)NCC#N)NC(=O)[C@H](C)NC(=O)[C@H]2N(C)C(=O)[C@H](CCN)NC(=O)c1c(C)nc(-c2ccc(C(C)(C)C)cc2)nc1C (racemic) [Compound 603, rac-(8S,11S,14S)-N-(cyanomethyl)-18-[2-(ethanimidoylamino)ethoxy]-3-hydroxy-11-methyl-14-[methyl-[rac-(2S)-4-amino-2-[[2-(4-tert-butylphenyl)-4,6-dimethyl-pyrimidine-5-carbonyl]amino]butanoyl]amino]-10,13-dioxo-9,12-diazatricyclo[13.3.1.12,6]icosa-1(18),2(20),3,5,15(19),16-hexaene-8-carboxamide]
MIC [3]: 0.44 µM

SMILES: Cc1nc(-c2ccc(OC3CCCCCC3)cc2)cc(N)c1C(=O)N[C@@H](CCN)C(=O)N(C)[C@@H]1C(=O)N[C@@H](C)C(=O)N[C@H](C(=O)NCC#N)Cc2ccc(OCCN)c(c2)-c2cc1ccc2OCCN (racemic) [Compound 545, rac-(8S,11S,14S)-3,18-bis(2-aminoethoxy)-N-(cyanomethyl)-11-methyl-14-[methyl-[rac-(2S)-4-amino-2-[[4-amino-6-[4-(cycloheptoxy)phenyl]-2-methyl-pyridine-3-carbonyl]amino]butanoyl]amino]-10,13-dioxo-9,12-diazatricyclo[13.3.1.12,6]icosa-1(18),2(20),3,5,15(19),16-hexaene-8-carboxamide]
MIC [1]: 1 µM

SMILES: COc1c(NCCN)cc2cc1-c1cc(ccc1O)C[C@@H](C(=O)NCC#N)NC(=O)[C@H](C)NC(=O)[C@H]2N(C)C(=O)[C@H](CCN)NC(=O)c1c(C)nc(-c2ccc(C(C)(C)C)cc2)nc1C [Compound 630, (8S,11S,14S)-14-[[(2S)-4-amino-2-[[2-(4-tert-butylphenyl)-4,6-dimethyl-pyrimidine-5-carbonyl]amino]butanoyl]-methyl-amino]-17-(2-aminoethylamino)-N-(cyanomethyl)-3-hydroxy-18-methoxy-11-methyl-10,13-dioxo-9,12-diazatricyclo[13.3.1.12,6]icosa-1(18),2(20),3,5,15(19),16-hexaene-8-carboxamide]
MIC [4]: 0.25 µM

SMILES: CCCCCCc1ccc(C(=O)N2C[C@H](N)CC2C(=O)N(C)[C@@H]2C(=O)N[C@@H](C)C(=O)N[C@H](C(=O)NCC#N)Cc3ccc(OCCN)c(c3)-c3cc2ccc3OCCN)c(C)c1 (mixture of isomers) [Compound 481, rac-(8S,11S,14S)-3,18-bis(2-aminoethoxy)-14-[[4-amino-1-(4-hexyl-2-methyl-benzoyl)pyrrolidine-2-carbonyl]-methyl-amino]-N-(cyanomethyl)-11-methyl-10,13-dioxo-9,12-diazatricyclo[13.3.1.12,6]icosa-1(18),2(20),3,5,15(19),16-hexaene-8-carboxamide]
MIC [2]: 2.3 µM

SMILES: COc1cc(OCCN)c2cc1-c1cc(ccc1OCCN)[C@H](N(C)C(=O)[C@H](CNS(N)(=O)=O)NC(=O)c1c(C)nc(-c3ccc(C(C)(C)C)cc3)nc1C)C(=O)N[C@@H](C)C(=O)N[C@H](C(=O)NCC#N)C2 (racemic) [Compound 627, rac-(8S,11S,14S)-5,18-bis(2-aminoethoxy)-N-(cyanomethyl)-3-methoxy-11-methyl-14-[methyl-[rac-(2S)-2-[[2-(4-tert-butylphenyl)-4,6-dimethyl-pyrimidine-5-carbonyl]amino]-3-(sulfamoylamino)propanoyl]amino]-10,13-dioxo-9,12-diazatricyclo[13.3.1.12,6]icosa-1(18),2(20),3,5,15(19),16-hexaene-8-carboxamide]
MIC [3]: 0.5 µM

SMILES: Cc1c(Oc2ccc(C(C)(C)C)cc2)ccc(C(=O)N[C@@H](CCN)C(=O)N(C)[C@@H]2C(=O)N[C@@H](C)C(=O)N[C@H](C(=O)NCC#N)Cc3ccc(OCCN)c(c3)-c3cc2ccc3OCCN)c1C (racemic) [Compound 374, rac-(8S,11S,14S)-3,18-bis(2-aminoethoxy)-N-(cyanomethyl)-11-methyl-14-[methyl-[rac-(2S)-4-amino-2-[[4-(4-tert-butylphenoxy)-2,3-dimethyl-benzoyl]amino]butanoyl]amino]-10,13-dioxo-9,12-diazatricyclo[13.3.1.12,6]icosa-1(18),2(20),3,5,15(19),16-hexaene-8-carboxamide]
MIC [2]: 0.25 µM
